Data as given in patent US4082881A, “Topical and other type pharmaceutical formulations containing isosorbide carrier” (E. R. Squibb & Sons, Inc., priority 1976, dated 1978).

Assays:
[1] = solubility of the steroid in water and in hydrocarbon and other vehicles; format: physicochemical
[2] = solubility of econazole nitrate in water and in the isosorbide preparations; format: physicochemical

| solubility in hydrocarbon vehicles ([1]; mineral oil, petrolatum or polyethylene gelled mineral oil, compared with water) | solubility ([1]; water) [µg/mL] | solubility in water-soluble emulsifiers and oil liquids or emollients ([1]; water-soluble emulsifiers and oil liquids or emollients suggested for ointments, gels, creams and lotions) | solubilized and available econazole nitrate relative to a conventional lotion or cream ([2]; in these preparations (Econazole Cream 0.5%, Econazole Lotion 0.5%) vs conventional lotion or cream, about) [times] | solubility ([2]; water) [µg/mL] | Compound |
| --- | --- | --- | --- | --- | --- |
| even less soluble | < 5 | undesirably low solubility | – | – | CC1(C)O[C@@H]2C[C@H]3[C@@H]4CCC5=CC(=O)CC[C@]5(C)[C@@]4(F)[C@@H](O)C[C@]3(C)[C@]2(C(=O)CCl)O1 [21-chloro-9α-fluoro-Δ^4-pregnene-11β,16α,17α-triol-3,20-dione 16,17-acetonide] |
| – | – | – | ≥ 5 | ~1000 | Clc1ccc(COC(Cn2ccnc2)c2ccc(Cl)cc2Cl)cc1 (centres unmarked) [econazole nitrate] |
